Test results taken from PubChem BioAssay AID324 (DTP/NCI, 2004).
Several values for one entry are separate records, joined by “and”; a condition that tells them apart may be missing. Identical values can stand only once. Inconclusive results and toxic doses are left out.

Tested on: CD2F1 mice, AMSA-resistant P388 leukemia ip, median survival T/C
Assay: NCI In Vivo Anticancer Drug Screen. Data for tumor model P388 Leukemia resistant to AMSA; NSC 249992 (intraperitoneal) in CD2F1 (CDF1) mice
Conditions: endpoint: median survival time, higher = longer survival
Description: The antitumor activity of compounds was measured in mice bearing transplantable tumors. Survival or tumor size were measured and the results are expressed as the measurement made in the treated group (T) divided by the measurement made in the vehicle treated control group (C). The tumor model used in this assay is P388 Leukemia resistant to AMSA; NSC 249992 (intraperitoneal) in CD2F1 (CDF1) mice

[1] = dose: 10.8 mg/kg/injection, schedule: Q04DX003 (ip), vehicle: water
[2] = dose: 18.0 mg/kg/injection, schedule: Q04DX003 (ip), vehicle: water

With `C(=N/NC1=NCCN1)/c1c2ccccc2c(/C=N\NC2=NCCN2)c2ccccc12` the T/C (dose: 5.18 mg/kg/injection, schedule: Q04DX002 (ip), vehicle: saline) was 121 % of control, the T/C (dose: 14.4 mg/kg/injection, schedule: Q04DX002 (ip), vehicle: saline) was 123 % of control and the T/C (dose: 40.0 mg/kg/injection, schedule: Q04DX002 (ip), vehicle: saline) was 123 % of control.

In the case of `CC1OC(OC2CC(O)(C(=O)CO)Cc3c(O)c4c(c(O)c32)C(=O)c2ccccc2C4=O)CC(N)C1O` (stereo not given), the T/C (dose: 0.13 mg/kg/injection, schedule: Q04DX003 (ip), vehicle: water) is reported as 114 % of control, the T/C (dose: 0.21 mg/kg/injection, schedule: Q04DX003 (ip), vehicle: water) is reported as 115 % of control and the T/C (dose: 0.6 mg/kg/injection, schedule: Q04DX003 (ip), vehicle: water) is reported as 117 % of control. The T/C (dose: 1.0 mg/kg/injection, schedule: Q04DX003 (ip), vehicle: water) was 123 % of control.

For `COc1cc([C@@H]2c3cc4c(cc3[C@@H](OC3OC5CO[C@@H](c6cccs6)OC5C(O)C3O)[C@H]3COC(=O)[C@H]23)OCO4)cc(OC)c1O` (stereo not given in full), the T/C (dose: 25.0 mg/kg/injection, schedule: Q04DX003 (ip), vehicle: clinical formulation) was 90 % of control.

For `COc1cc(NS(C)(=O)=O)ccc1Nc1c2ccccc2nc2cc(C(F)(F)F)c(N)cc12`, the T/C (dose: 13.0 mg/kg/injection, schedule: Q04DX003 (ip), vehicle: distilled water + Tween-80) was 106 % of control, the T/C (dose: 21.6 mg/kg/injection, schedule: Q04DX003 (ip), vehicle: distilled water + Tween-80) was 103 % of control and the T/C (dose: 36.0 mg/kg/injection, schedule: Q04DX003 (ip), vehicle: distilled water + Tween-80) was 104 % of control. The T/C (dose: 60.0 mg/kg/injection, schedule: Q04DX003 (ip), vehicle: distilled water + Tween-80) was 108 % of control, the T/C (dose: 64.8 mg/kg/injection, schedule: Q04DX002 (ip), vehicle: water) was 114 % of control and the T/C (dose: 100.0 mg/kg/injection, schedule: Q04DX003 (ip), vehicle: distilled water + Tween-80) was 103 % of control.

In the case of `CN(Cc1cnc2nc(N)nc(N)c2n1)c1ccc(C(=O)N[C@@H](CCC(=O)O)C(=O)O)cc1`, the T/C (dose: 3.0 mg/kg/injection, schedule: Q01DX005 (ip), vehicle: sodium bicarbonate) is reported as 173 % of control, the T/C (dose: 3.5 mg/kg/injection, schedule: Q01DX005 (ip), vehicle: sodium bicarbonate) is reported as 171 % of control and the T/C (dose: 4.0 mg/kg/injection, schedule: Q01DX005 (ip), vehicle: sodium bicarbonate) is reported as 164 % of control. The T/C (dose: 4.5 mg/kg/injection, schedule: Q01DX005 (ip), vehicle: sodium bicarbonate) was 177 % of control, the T/C (dose: 6.48 mg/kg/injection, schedule: Q04DX003 (ip), vehicle: sodium bicarbonate) was 165 % of control and the T/C (dose: 10.8 mg/kg/injection, schedule: Q04DX003 (ip), vehicle: sodium bicarbonate) was 180 % of control. For the same molecule, the T/C (dose: 18.0 mg/kg/injection, schedule: Q04DX003 (ip), vehicle: sodium bicarbonate) was 196 % of control, the T/C (dose: 30.0 mg/kg/injection, schedule: Q04DX003 (ip), vehicle: sodium bicarbonate) was 114 % of control and the T/C (dose: 50.0 mg/kg/injection, schedule: Q04DX003 (ip), vehicle: sodium bicarbonate) was 98 % of control.

In the case of `CC[C@]1(O)C[C@H]2CN(CCc3c([nH]c4ccccc34)[C@@](C(=O)OC)(c3cc4c(cc3OC)N(C=O)[C@H]3[C@@](O)(C(=O)OC)[C@H](OC(C)=O)[C@]5(CC)C=CCN6CC[C@]43[C@@H]65)C2)C1`, the T/C (dose: 0.72 mg/kg/injection, schedule: Q04DX003 (ip), vehicle: saline) is reported as 176 % of control, the T/C (dose: 1.0 mg/kg/injection, schedule: Q04DX003 (ip), vehicle: saline) is reported as 102 % of control and the T/C (dose: 1.2 mg/kg/injection, schedule: Q04DX003 (ip), vehicle: saline) is reported as 201 % of control. For the same molecule, the T/C (dose: 2.0 mg/kg/injection, schedule: Q04DX003 (ip), vehicle: saline) was 193 % of control.

`O=C(Nc1ccc(C2=NCCCN2)cc1)c1ccc(C(=O)Nc2ccc(C3=NCCCN3)cc2)cc1` was tested, and the T/C (dose: 10.8 mg/kg/injection, schedule: Q04DX003 (ip), vehicle: Klucel (hydroxypropylcellulose) (HPC)) was 167 % of control, the T/C (dose: 18.0 mg/kg/injection, schedule: Q04DX003 (ip), vehicle: Klucel (hydroxypropylcellulose) (HPC)) was 185 % of control and the T/C (dose: 30.0 mg/kg/injection, schedule: Q04DX003 (ip), vehicle: Klucel (hydroxypropylcellulose) (HPC)) was 278 % of control. For the same molecule, the T/C (dose: 50.0 mg/kg/injection, schedule: Q04DX003 (ip), vehicle: Klucel (hydroxypropylcellulose) (HPC)) was 95 % of control.

For `COc1cccc2c1C(=O)c1c(O)c3c(c(O)c1C2=O)C[C@@](O)(C(C)=O)C[C@@H]3OC1CC(NCc2ccccc2)C(O)C(C)O1` (stereo not given in full), the T/C (dose: 6.48 mg/kg/injection, schedule: Q04DX003 (ip), vehicle: water) was 113 % of control, the T/C [1] was 117 % of control and the T/C [2] was 104 % of control.

With `O=C1c2c(O)ccc(O)c2C(=O)c2c(NCCNCCO)ccc(NCCNCCO)c21` the T/C (dose: 1.3 mg/kg/injection, schedule: Q04DX002 (ip), vehicle: water) was 110 % of control, the T/C (dose: 3.6 mg/kg/injection, schedule: Q04DX003 (ip), vehicle: saline) was 157 % of control and the T/C (dose: 6.0 mg/kg/injection, schedule: Q04DX002 (ip), vehicle: water) was 96 % of control. The T/C (dose: 6.0 mg/kg/injection, schedule: Q04DX003 (ip), vehicle: saline) was 96 % of control and 123 % of control and the T/C (dose: 10.0 mg/kg/injection, schedule: Q04DX002 (ip), vehicle: water) was 89 % of control.

In the case of `Cc1c2ccncc2c(C)c2c1[nH]c1ccccc12`, the T/C (dose: 7.78 mg/kg/injection, schedule: Q04DX003 (ip), vehicle: saline with Tween-80) is reported as 100 % of control, the T/C (dose: 13.0 mg/kg/injection, schedule: Q04DX003 (ip), vehicle: saline with Tween-80) is reported as 87 % of control and the T/C (dose: 13.0 mg/kg/injection, schedule: Q04DX003 (ip), vehicle: water) is reported as 96 % of control. The T/C (dose: 21.6 mg/kg/injection, schedule: Q04DX003 (ip), vehicle: saline with Tween-80) was 100 % of control, the T/C (dose: 21.6 mg/kg/injection, schedule: Q04DX003 (ip), vehicle: water) was 100 % of control and the T/C (dose: 25.9 mg/kg/injection, schedule: Q04DX002 (ip), vehicle: saline with Tween-80) was 100 % of control. For the same molecule, the T/C (dose: 36.0 mg/kg/injection, schedule: Q04DX003 (ip), vehicle: saline with Tween-80) was 101 % of control, the T/C (dose: 36.0 mg/kg/injection, schedule: Q04DX003 (ip), vehicle: water) was 101 % of control and the T/C (dose: 43.2 mg/kg/injection, schedule: Q04DX002 (ip), vehicle: saline with Tween-80) was 98 % of control. For the same molecule, the T/C (dose: 60.0 mg/kg/injection, schedule: Q04DX003 (ip), vehicle: saline with Tween-80) was 109 % of control, the T/C (dose: 60.0 mg/kg/injection, schedule: Q04DX003 (ip), vehicle: water) was 89 % of control and the T/C (dose: 72.0 mg/kg/injection, schedule: Q04DX002 (ip), vehicle: saline with Tween-80) was 95 % of control. For the same molecule, the T/C (dose: 120.0 mg/kg/injection, schedule: Q04DX002 (ip), vehicle: saline with Tween-80) was 95 % of control and the T/C (dose: 200.0 mg/kg/injection, schedule: Q04DX002 (ip), vehicle: saline with Tween-80) was 95 % of control.

In the case of `CCCCC(=O)N(c1ccc(Nc2c3ccccc3nc3cc([N+](=O)[O-])ccc23)cc1)S(C)(=O)=O`, the T/C [1] is reported as 100 % of control, the T/C [2] is reported as 96 % of control and the T/C (dose: 30.0 mg/kg/injection, schedule: Q04DX003 (ip), vehicle: water) is reported as 95 % of control. The T/C (dose: 50.0 mg/kg/injection, schedule: Q04DX003 (ip), vehicle: water) was 99 % of control and the T/C (dose: 83.3 mg/kg/injection, schedule: Q04DX003 (ip), vehicle: water) was 91 % of control.

In the case of `COc1cccc2c1C(=O)c1c(O)c3c(c(O)c1C2=O)C[C@@](O)(C(=O)CO)C[C@@H]3OC1CC(N)C(O)C(C)O1` (stereo not given in full), the T/C (dose: 0.97 mg/kg/injection, schedule: Q04DX003 (ip), vehicle: saline) is reported as 118 % of control and 124 % of control, the T/C (dose: 1.3 mg/kg/injection, schedule: Q04DX002 (ip), vehicle: saline) is reported as 109 % of control and 86 % of control and the T/C (dose: 1.62 mg/kg/injection, schedule: Q04DX003 (ip), vehicle: saline) is reported as 121 % of control. For the same molecule, the T/C (dose: 2.16 mg/kg/injection, schedule: Q04DX002 (ip), vehicle: saline) was 104 % of control, the T/C (dose: 2.7 mg/kg/injection, schedule: Q04DX003 (ip), vehicle: saline) was 122 % of control and the T/C (dose: 4.5 mg/kg/injection, schedule: Q04DX003 (ip), vehicle: saline) was 152 % of control. For the same molecule, the T/C (dose: 6.0 mg/kg/injection, schedule: Q04DX002 (ip), vehicle: saline) was 90 % of control.
